Experimental data taken from article PMC6694155, “PTPσ inhibitors promote hematopoietic stem cell regeneration” (Nature Communications, 2019).
Several values for one entry are separate records, joined by “and”; a condition that tells them apart may be missing. Equal entries are not always repeated.

Key:
[1] = target: T1, CD45 (Protein Tyrosine Phosphatase, receptor type C) (Homo sapiens, UniProt P08575); assay: PhosphataseProfiler screen: CD45; format: biochemical; conditions: replicates
T1 construct: purchased Eurofins Pharma Discovery Services UK
T1 sequence (P08575 26-1306, species assumed): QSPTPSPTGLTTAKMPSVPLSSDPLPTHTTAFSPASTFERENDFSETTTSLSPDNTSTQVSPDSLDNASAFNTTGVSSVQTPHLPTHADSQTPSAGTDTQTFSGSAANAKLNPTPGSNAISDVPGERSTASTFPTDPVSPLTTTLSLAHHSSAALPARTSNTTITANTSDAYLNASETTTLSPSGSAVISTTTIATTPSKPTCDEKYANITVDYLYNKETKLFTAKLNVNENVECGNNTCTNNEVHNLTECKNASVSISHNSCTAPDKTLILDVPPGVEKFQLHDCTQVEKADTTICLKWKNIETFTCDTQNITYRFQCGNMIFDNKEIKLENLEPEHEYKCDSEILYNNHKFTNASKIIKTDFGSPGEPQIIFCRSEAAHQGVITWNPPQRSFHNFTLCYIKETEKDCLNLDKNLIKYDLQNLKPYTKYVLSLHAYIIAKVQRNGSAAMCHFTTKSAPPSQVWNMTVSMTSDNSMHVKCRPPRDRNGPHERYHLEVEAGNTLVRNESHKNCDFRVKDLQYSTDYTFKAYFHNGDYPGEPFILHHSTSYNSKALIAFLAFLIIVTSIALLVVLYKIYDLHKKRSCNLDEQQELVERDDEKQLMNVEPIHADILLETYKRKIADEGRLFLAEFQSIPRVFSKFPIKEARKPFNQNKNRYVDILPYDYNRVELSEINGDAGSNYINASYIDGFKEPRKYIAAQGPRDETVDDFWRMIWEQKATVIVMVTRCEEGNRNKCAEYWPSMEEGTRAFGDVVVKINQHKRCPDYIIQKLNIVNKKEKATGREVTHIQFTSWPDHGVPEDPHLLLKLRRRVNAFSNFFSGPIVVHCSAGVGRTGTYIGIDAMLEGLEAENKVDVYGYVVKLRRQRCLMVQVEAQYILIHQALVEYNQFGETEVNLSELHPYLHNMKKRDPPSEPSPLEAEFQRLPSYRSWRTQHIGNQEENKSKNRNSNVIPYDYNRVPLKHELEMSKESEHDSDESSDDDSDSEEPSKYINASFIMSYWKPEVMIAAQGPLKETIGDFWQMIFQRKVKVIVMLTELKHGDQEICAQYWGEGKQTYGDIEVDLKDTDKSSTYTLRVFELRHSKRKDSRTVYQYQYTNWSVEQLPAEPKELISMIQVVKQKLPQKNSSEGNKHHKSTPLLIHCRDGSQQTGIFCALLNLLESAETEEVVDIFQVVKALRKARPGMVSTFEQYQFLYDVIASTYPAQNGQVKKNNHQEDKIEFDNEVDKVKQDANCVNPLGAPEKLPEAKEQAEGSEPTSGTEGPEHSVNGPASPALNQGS
Method: (§1) Compound DJ001 was evaluated in a PhosphataseProfiler™ screen at 10 μM and 1 μM (2.7 μg/mL and 0.27 μg/mL) concentrations at Eurofins Pharma Discovery Services UK (Study number UK022-0004033) against a panel of 21 Phosphatases. In each experiment, the respective reference antagonist/agonist was tested directly with DJ001 and the data were compared with historical values determined at Eurofins. DJ001 compound inhibition was calculated as percentage inhibition of the enzymatic activity compared with control.

[2] = target: T2, PPα (Protein Phosphatase 1 Catalytic Subunit alpha) (Homo sapiens, UniProt P62136); assay: PhosphataseProfiler screen: PPα; format: biochemical; conditions: replicates
T2 construct: purchased Eurofins Pharma Discovery Services UK
T2 sequence (P62136 whole entry): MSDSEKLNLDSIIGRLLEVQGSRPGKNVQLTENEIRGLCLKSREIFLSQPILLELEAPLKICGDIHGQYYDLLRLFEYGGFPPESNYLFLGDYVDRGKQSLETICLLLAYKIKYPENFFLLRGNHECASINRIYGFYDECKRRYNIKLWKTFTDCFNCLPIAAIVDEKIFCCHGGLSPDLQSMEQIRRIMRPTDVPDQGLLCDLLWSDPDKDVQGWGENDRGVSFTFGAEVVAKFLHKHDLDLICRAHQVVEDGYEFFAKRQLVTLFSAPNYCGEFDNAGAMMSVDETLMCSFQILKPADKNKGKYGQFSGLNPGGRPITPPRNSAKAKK
Method: as §1

[3] = target: T3, PTPβ (Protein Tyrosine Phosphatase Receptor beta) (Homo sapiens, UniProt P23467); assay: PhosphataseProfiler screen: PTPβ; format: biochemical; conditions: replicates
T3 construct: purchased Eurofins Pharma Discovery Services UK
T3 sequence (P23467 23-1997): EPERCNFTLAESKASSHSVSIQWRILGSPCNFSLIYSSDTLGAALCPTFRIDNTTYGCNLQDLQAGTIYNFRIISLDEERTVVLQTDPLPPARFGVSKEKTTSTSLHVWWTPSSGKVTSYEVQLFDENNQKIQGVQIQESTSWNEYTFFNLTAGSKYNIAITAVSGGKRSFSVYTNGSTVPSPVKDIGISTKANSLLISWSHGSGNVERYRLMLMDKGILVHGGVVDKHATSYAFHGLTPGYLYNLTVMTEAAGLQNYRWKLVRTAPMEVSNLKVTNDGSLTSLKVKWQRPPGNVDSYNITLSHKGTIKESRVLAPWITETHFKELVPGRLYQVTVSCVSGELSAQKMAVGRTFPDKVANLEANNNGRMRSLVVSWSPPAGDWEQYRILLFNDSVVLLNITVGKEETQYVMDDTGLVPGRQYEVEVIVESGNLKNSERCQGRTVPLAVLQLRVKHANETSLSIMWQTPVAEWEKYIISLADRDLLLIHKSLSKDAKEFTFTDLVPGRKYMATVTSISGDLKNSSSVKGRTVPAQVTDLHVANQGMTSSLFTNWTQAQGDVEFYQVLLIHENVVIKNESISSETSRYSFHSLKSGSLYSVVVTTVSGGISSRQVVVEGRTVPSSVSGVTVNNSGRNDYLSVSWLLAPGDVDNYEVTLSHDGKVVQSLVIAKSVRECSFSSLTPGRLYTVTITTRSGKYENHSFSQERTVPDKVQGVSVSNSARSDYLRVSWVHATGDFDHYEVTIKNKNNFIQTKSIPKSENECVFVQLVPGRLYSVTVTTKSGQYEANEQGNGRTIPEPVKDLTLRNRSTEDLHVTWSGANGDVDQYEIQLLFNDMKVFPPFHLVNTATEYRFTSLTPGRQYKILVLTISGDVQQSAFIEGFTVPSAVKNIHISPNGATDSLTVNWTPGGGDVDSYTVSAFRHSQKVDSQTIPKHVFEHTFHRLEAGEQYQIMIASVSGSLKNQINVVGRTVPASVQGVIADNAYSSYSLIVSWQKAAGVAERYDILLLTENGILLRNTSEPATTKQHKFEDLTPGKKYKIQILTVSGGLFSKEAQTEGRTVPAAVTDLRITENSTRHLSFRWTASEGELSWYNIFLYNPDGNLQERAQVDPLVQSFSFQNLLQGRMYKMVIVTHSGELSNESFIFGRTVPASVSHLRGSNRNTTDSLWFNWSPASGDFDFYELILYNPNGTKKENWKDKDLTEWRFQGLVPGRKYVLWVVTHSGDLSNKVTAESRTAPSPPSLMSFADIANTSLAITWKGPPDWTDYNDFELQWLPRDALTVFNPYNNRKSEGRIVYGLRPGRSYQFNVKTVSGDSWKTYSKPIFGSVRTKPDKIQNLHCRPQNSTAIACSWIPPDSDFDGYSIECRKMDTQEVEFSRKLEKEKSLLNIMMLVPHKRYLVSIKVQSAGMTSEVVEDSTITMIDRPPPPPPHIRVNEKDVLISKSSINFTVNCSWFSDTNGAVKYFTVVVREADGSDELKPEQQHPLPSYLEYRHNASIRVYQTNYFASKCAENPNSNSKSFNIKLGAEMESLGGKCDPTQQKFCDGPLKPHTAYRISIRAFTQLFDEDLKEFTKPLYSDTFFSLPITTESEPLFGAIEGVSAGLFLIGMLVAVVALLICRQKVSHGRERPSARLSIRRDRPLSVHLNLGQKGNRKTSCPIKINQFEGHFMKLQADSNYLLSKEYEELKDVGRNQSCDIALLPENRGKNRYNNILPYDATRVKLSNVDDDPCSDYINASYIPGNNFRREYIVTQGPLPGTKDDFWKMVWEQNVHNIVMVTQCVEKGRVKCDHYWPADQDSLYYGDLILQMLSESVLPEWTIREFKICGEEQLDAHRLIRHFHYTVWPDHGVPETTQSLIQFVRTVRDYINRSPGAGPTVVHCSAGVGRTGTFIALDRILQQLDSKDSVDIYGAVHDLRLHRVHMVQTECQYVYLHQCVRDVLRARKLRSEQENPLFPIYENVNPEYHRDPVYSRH
Method: as §1

[4] = test system: BM KSL cells; assay: CFC assay, 3 day culture of non-irradiated BM KSL cells; format: cell-based, mouse; conditions: for Supplementary Figure 3b: BFU-E / Supplementary Figure 3b: CFU-GEMM / Supplementary Figure 3b: CFU-GM: non-irradiated BM KSL cells, replicates
Method: CFC assays (colony-forming unit-granulocyte monocyte), burst-forming unit-erythroid, and CFU-GEMM were performed using MethoCult GF M3434 (Stemcell Technologies)[6]. For all in vitro assays, BM CD34^−KSL cells, KSL cells, and Lin^− cells were cultured in TSF media (IMDM, 10% FBS, 1% pen-strep, 20 ng/mL recombinant mouse TPO, 125 ng/mL recombinant mouse SCF, 50 ng/mL recombinant mouse Flt3 ligand). Recombinant mouse SCF, Flt3 ligand, and TPO were purchased from R&D Systems. For competitive repopulation assays, BM cells were isolated from donor 10–12-week-old female CD45.2^+ mice. Recipient 10-week-old female CD45.1^+ B6.SJL mice were irradiated with 950 cGy TBI using a Cs137 irradiator and donor BM cells were administered via tail vein injection along with a competing dose of 1 × 10^5 non-irradiated host BM cells. Multilineage donor hematopoietic cell engraftment was measured in the PB by flow cytometry.

[5] = Pharmacokinetic study for DJ001; format: in vivo, mouse; conditions: for concentration of DJ001 in the peripheral blood: 5 mg/kg single subcutaneous dose
Method: PK studies for DJ001 were performed at Cyprotex (Study Number CYP1426-R1) under non-good laboratory practice conditions. Mice were subcutaneously injected with a single dose of 5 mg/kg DJ001 (in 10% DMSO, 40% phosphate-buffered saline (PBS), 50% polyethylene glycol and plasma samples were collected at 0.08, 0.25, 0.5, 1, 2, 4, 8, and 24 h. Samples were crashed with three volumes of methanol and analytical internal standard (propranolol). Supernatant was subjected to liquid chromatography-mass spectrometry/mass spectrometry (MS/MS) using an acetonitrile-water gradient system and electrospray ionization in multiple reaction monitoring mode for MS detection. All plasma samples were compared with an internal calibration curve prepared in mouse blank plasma.

[6] = test system: p250GAP in BM lin− cells; assay: p250GAP phospho-tyrosine sandwich ELISA; format: cell-based, mouse
Method: Clear, pre-blocked Protein A-coated Microtiter wells (Fisher Scientific, #15132) were incubated with ARHGAP32 polyclonal antibody (Bioss, #bs-9296R, 1:500) in antibody dilution buffer (150 mM NaCl, 25 mM HEPES pH 7.2, 0.5% bovine serum albumin, 0.05% Tween 20) for 3 h at room temperature (RT). Subsequently, the plate was washed three times and phosphorylated p250GAP from BM lin^− cell lysate was added to each well. BM lin^− cells were collected in NP40 buffer (ThermoFisher Scientific; FNN0021) supplemented with 1× complete, Mini, EDTA-free Protease Inhibitor Cocktail (Sigma Aldrich; 4693159001) and 1× PhosSTOP (Sigma Aldrich; 4906845001). Following incubation for 2 h at 4 °C, the plate was completely emptied (without washing) and exposed to 50 μL of a fixation solution (0.5% formaldehyde in 300 mM NaCl, 20 mM sodium phosphate buffer, pH 7) for 10 min. The plate-bound, phosphorylated p250GAP was measured by a specific anti-phospho-tyrosine peroxidase-coupled antibody (Sigma Aldrich, #A5964-1VL, 1:500) in antibody dilution buffer. Incubation was for 1 h at RT. Peroxidase activity was measured by a Tecan Infinity plate reader using BM Chemiluminescence ELISA Substrate (Sigma Aldrich, #11582950001).

Question: For `O=C(/C=C\Nc1cccc([N+](=O)[O-])c1)c1ccccc1` [DJ001, (Z)-3-((3-nitrophenyl)amino)-1-phenylprop-2-en-1-one], which “Supplementary Figure 1: CD45 activity” value ([1]; 0.27 μg/mL DJ001) is on record?
Answer: The value was 91 and 86 and 84.

Question: What about the “Supplementary Figure 1: CD45 activity” value ([1]; 2.7 μg/mL DJ001) of the same molecule?
Answer: The value was 71 and 85 and 86.

Question: What about the “Supplementary Figure 1: PP activity” value ([2]; 2.7 μg/mL DJ001) of the same molecule?
Answer: The value was 87 and 90 and 89.

Question: What about the “Supplementary Figure 1: PP activity” value ([2]; 0.27 g/mL DJ001) of the same molecule?
Answer: The value was 99 and 95 (2×).

Question: And the “Supplementary Figure 1: PTP activity” value ([3]; 2.7 μg/mL DJ001)?
Answer: The value was 92 and 79 and 96.

Question: And the “Supplementary Figure 1: PTP activity” value ([3]; 0.27 g/mL DJ001)?
Answer: The value was 98 and 91 and 84.

Question: And the “Supplementary Figure 3b: BFU-E” value ([4]; 10 ng/mL)?
Answer: Its value is 0 (4×) and 1 and 2.

Question: And the “Supplementary Figure 3b: CFU-GEMM” value ([4]; 10 ng/mL)?
Answer: Its value is 2 and 4 (2×) and 7 (2×) and 3.

Question: And the “Supplementary Figure 3b: CFU-GM” value ([4]; 10 ng/mL)?
Answer: Its value is 21 and 22 and 19 and 15 (2×) and 18.

Question: What about the “Supplementary Figure 3b: BFU-E” value ([4]; 100 ng/mL) of the same molecule?
Answer: Its value is 1 (3×) and 3 and 2.

Question: And the “Supplementary Figure 3b: CFU-GEMM” value ([4]; 100 ng/mL)?
Answer: The value was 8 (2×) and 7 and 6 and 5.

Question: And the “Supplementary Figure 3b: CFU-GM” value ([4]; 100 ng/mL)?
Answer: The value was 23 and 20 and 24 (2×) and 21.

Question: And the “Supplementary Figure 3b: BFU-E” value ([4]; 1000 ng/mL)?
Answer: The value was 3 and 2 (3×) and 1.

Question: And the “Supplementary Figure 3b: CFU-GEMM” value ([4]; 1000 ng/mL)?
Answer: The value was 6 (3×) and 8 and 9.

Question: What about the “Supplementary Figure 3b: CFU-GM” value ([4]; 1000 ng/mL) of the same molecule?
Answer: The value was 27 and 30 and 28 (2×) and 25.

Question: And the “Supplementary Figure 3b: BFU-E” value ([4]; 5 µg/mL)?
Answer: Its value is 2 and 4 and 1 (3×) and 0.

Question: And the “Supplementary Figure 3b: BFU-E” value ([4]; 10 µg/mL)?
Answer: The value was 3 (2×) and 2 (2×) and 1 (2×).

Question: And the “Supplementary Figure 3b: CFU-GEMM” value ([4]; 10 µg/mL)?
Answer: The value was 3 (3×) and 2 (2×) and 1.

Question: And the “Supplementary Figure 3b: CFU-GM” value ([4]; 10 µg/mL)?
Answer: The value was 14 (2×) and 17 and 16 and 15 and 12.

Question: And the “number of BM CFCs in 3 day culture of BM KSL cells” value ([4]; 10 – 100 ng/ml DJ001)?
Answer: The value was “significantly increased the number of BM CFCs”.

Question: What about the “numbers of CFCs vs control” value ([4]; 3 day culture of non-irradiated BM KSL cells) of the same molecule?
Answer: Its value is “significantly increased the numbers of colony forming cells (CFCs)”.

Question: And the “Supplementary Figure 3b: CFU-GEMM” value [4]?
Answer: Its value is 3 (4×) and 6 and 4.

Question: What about the “Supplementary Figure 3b: CFU-GM” value [4] of the same molecule?
Answer: Its value is 22 and 21 and 23 and 20 and 19 and 18.

Question: What about the “concentration of DJ001 in the peripheral blood” value ([5]; through + 24 hours following administration) of the same molecule?
Answer: The value was “approximately 10 ng/ml”.

Question: And the “concentration of DJ001 in the peripheral blood” value ([5]; within 1 hour after administration)?
Answer: The value was 100 ng/mL.

Question: What about the “DJ001 concentrations in the PB” value ([5]; 5 mg/kg subcutaneously × 1, over several hours post injection) of the same molecule?
Answer: Its value is 10 to 100 ng/mL.

Question: And the “Supplementary Figure 4f: Concentration” value ([5]; 0.08 Hours, individual mice)?
Answer: Its value is 170 ng/mL and 54.7 ng/mL and 61.1 ng/mL.

Question: What about the “Supplementary Figure 4f: Concentration” value ([5]; 0.25 Hours, individual mice) of the same molecule?
Answer: The value was 159 ng/mL and 93.5 ng/mL.

Question: And the “Supplementary Figure 4f: Concentration” value ([5]; 0.5 Hours, individual mice)?
Answer: Its value is 113 ng/mL and 133 ng/mL and 60.5 ng/mL.

Question: What about the “Supplementary Figure 4f: Concentration” value ([5]; 1 Hours, individual mice) of the same molecule?
Answer: The value was 40.5 ng/mL and 40.7 ng/mL.

Question: What about the “Supplementary Figure 4f: Concentration” value ([5]; 2 Hours, individual mice) of the same molecule?
Answer: The value was 35.3 ng/mL and 19.5 ng/mL.

Question: And the “Supplementary Figure 4f: Concentration” value ([5]; 4 Hours, individual mice)?
Answer: The value was 5.8 ng/mL and 6.7 ng/mL.

Question: And the “Supplementary Figure 4f: Concentration” value ([5]; 8 Hours, individual mice)?
Answer: Its value is 1.7 ng/mL and 7.8 ng/mL and 12.4 ng/mL.

Question: And the “Supplementary Figure 4f: Concentration” value ([5]; 24 Hours, individual mice)?
Answer: The value was 2.8 ng/mL and 2.3 ng/mL and 8.9 ng/mL.

Question: What about the concentration at 0.25 h ([5]; C57BL/6, mouse, plasma, subcutaneous, 5 mg/kg, 0.25 Hours, individual mice, read-out: Supplementary Figure 4f: Concentration) of the same molecule?
Answer: The concentration at 0.25 h was 113 ng/mL.

Question: What about the concentration at 1 h ([5]; C57BL/6, mouse, plasma, subcutaneous, 5 mg/kg, 1 Hours, individual mice, read-out: Supplementary Figure 4f: Concentration) of the same molecule?
Answer: Its concentration at 1 h is 79.5 ng/mL.

Question: What about the concentration at 2 h ([5]; C57BL/6, mouse, plasma, subcutaneous, 5 mg/kg, 2 Hours, individual mice, read-out: Supplementary Figure 4f: Concentration) of the same molecule?
Answer: Its concentration at 2 h is 32.9 ng/mL.

Question: And the concentration at 4 h ([5]; C57BL/6, mouse, plasma, subcutaneous, 5 mg/kg, 4 Hours, individual mice, read-out: Supplementary Figure 4f: Concentration)?
Answer: The concentration at 4 h was 6.5 ng/mL.

Question: What about the “phosphorylation of p250GAP” value ([6]; 1 µg/mL DJ001) of the same molecule?
Answer: Its value is “significantly increased phosphorylation of p250GAP”.

Question: And the “Figure 3a: p250GAP phosphorylation (phospho-tyrosine ELISA)” value ([6]; DJ001 vs media, individual replicates)?
Answer: Its value is 62.785 and 39.77 and 58.721 and 55.943 and 45.893 and 49.264 and 56.331.
